From patent US20220127247A1, “N-(PYRIDIN-2-YL)PYRIDINE-SULFONAMIDE DERIVATIVES AND THEIR USE IN THE TREATMENT OF DISEASE” (NOVARTIS AG, priority 2019, published 2022)

Key:
[1] = target: T1, delF508-CFTR (Homo sapiens, UniProt P13569, DEL508-508); test: Measurement of delF508-CFTR-HRP surface expression in CFBE41o- cells; format: cell-based; conditions: for EC50: HRP-tagged delF508-CFTR in CFBE41o- cells, 24 h with compound, luminescence, 10-point curve, top 10 μM; for Emax: efficacy relative to reference compound 3-(6-(1-(2,2-difluorobenzo[d][1,3]dioxol-5-yl)cyclopropane-1-carboxamido)-3-methylpyridin-2-yl)benzoic acid, CFBE41o- cells, 24 h, read-out: DelF508-CFTR-HRP Amax %
T1 construct: expressed in transfected cells
T1 sequence (P13569 with tags, fused parts or gaps DEL508-508): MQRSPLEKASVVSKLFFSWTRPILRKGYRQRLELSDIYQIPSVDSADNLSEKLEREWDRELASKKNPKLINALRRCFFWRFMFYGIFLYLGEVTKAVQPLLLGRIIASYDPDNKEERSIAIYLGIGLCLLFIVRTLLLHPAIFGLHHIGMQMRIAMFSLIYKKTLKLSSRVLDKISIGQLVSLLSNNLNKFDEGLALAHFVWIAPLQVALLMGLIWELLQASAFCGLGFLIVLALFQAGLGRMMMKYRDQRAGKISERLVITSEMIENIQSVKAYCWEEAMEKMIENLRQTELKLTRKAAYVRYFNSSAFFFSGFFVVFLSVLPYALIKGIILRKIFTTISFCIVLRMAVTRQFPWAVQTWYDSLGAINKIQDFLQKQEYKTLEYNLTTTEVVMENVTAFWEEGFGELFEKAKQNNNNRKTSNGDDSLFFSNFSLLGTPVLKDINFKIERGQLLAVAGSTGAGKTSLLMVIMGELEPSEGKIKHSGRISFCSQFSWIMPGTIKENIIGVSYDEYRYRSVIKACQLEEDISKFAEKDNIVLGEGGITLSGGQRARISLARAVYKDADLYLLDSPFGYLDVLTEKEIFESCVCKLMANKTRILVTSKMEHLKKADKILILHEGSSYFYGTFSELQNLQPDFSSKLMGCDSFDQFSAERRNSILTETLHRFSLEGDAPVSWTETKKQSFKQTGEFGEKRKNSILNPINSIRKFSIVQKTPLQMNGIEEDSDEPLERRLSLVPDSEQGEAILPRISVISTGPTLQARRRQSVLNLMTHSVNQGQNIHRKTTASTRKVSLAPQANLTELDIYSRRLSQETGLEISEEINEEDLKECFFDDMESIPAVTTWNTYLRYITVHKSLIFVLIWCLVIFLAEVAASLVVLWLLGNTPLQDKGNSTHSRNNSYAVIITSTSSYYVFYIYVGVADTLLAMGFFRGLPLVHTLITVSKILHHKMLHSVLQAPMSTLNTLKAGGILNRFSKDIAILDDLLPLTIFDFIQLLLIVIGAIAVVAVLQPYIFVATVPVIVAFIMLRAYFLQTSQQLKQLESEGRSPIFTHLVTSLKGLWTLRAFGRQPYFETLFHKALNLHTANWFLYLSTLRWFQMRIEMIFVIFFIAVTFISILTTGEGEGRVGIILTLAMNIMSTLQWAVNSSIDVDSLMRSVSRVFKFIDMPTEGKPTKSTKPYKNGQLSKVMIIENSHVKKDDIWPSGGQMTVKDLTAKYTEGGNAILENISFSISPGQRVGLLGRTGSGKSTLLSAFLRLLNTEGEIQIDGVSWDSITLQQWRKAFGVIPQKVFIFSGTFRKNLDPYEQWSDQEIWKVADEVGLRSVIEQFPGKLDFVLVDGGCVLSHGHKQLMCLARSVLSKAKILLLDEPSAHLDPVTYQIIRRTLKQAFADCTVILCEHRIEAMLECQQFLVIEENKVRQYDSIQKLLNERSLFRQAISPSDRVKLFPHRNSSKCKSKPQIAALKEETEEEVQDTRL
How it was run: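 CFBE41o- cells stably expressing delF508-CFTR with HRP in the fourth extracellular loop, induced with 500 ng/mL doxycycline for 48 h, then treated with compound (top 10 μM, 10-point 3-fold) for 24 h at 37° C. Surface HRP detected by luminescence with cell-impermeant substrate; EC50 from logistic fit of triplicates, normalized to lowest concentration.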

[2] = target: T1, delF508-CFTR; test: delF508-CFTR functional activity in primary human bronchial epithelial cells (HBECs), Multi-Transepithelial Clamp Circuit (MTECC-24) assay; format: cell-based; conditions: for EC50: primary human delF508-CFTR bronchial epithelial cells, 24 h with compound, equivalent short circuit current (Ieq), forskolin plus potentiator, mean of at least two replicates, read-out: MTECC24-CFHBEC EC50; for MTECC24-CFHBEC Amax %: test compound added 24 h before assay, with potentiator (S)-3-amino-6-methoxy-N-(3,3,3-trifluoro-2-hydroxy-2-methylpropyl)-5-(trifluoromethyl)picolinamide, relative to 2 μM 3-(6-(1-(2,2-difluorobenzo[d][1,3]dioxol-5-yl)cyclopropane-1-carboxamido)-3-methylpyridin-2-yl)benzoic acid + 0.5 μM N-(2,4-di-tert-butyl-5-hydroxyphenyl)-4-oxo-1,4-dihydroquinoline-3-carboxamide
Text: Measurement of delF508-CFTR Functional Activity in Primary Human Bronchial Epithelial Cells (HBECs) Using Multi-Transepithelial Clamp Circuit (MTECC-24) Assay
This assay measures the functional activity of the CFTR channel (Chloride ion transport) in patient derived primary human bronchial epithelial cells with forskolin activation and in the presence of the CFTR corrector/potentiator combination.
Primary human delF508-CFTR bronchial epithelial cells were and cultured according to previously established methods (Neuberger, T. et, al., Methods in Molecular Biology, 2011, 741, pp 39-54). Briefly, before thawing the HBEC cells, T25 flasks were coated with 2 mL of 3T3 conditioned media (MTI-GlobalStem, Cat #GSM9100) for at least 12 hours in 37° C. CO2 incubator. 1.7×10^5 cells were seeded into one T25 flask with 5 mL of HBE growth media (BEBM with supplements (Lonza, Cat #CC-3170) with 10 nM of retinoic acid (Sigma, Cat #R-2625) and 1% of PSA (Hyclone, Cat #SV30079.01). Media was changed every day till the cells were 100% confluent. Cells were seeded into T75 flasks (pre-coated with 5 mL of 3T3 conditioned media for more than 12 hrs) at 4.95×10^5 cells/T75 flask in 15 mL of HBE growth media. Flasks were fed everyday with fresh HBE growth media until the cells were confluent. 24-well transwell plates (Corning, Cat #3378) were coated with 3T3 conditioned media (70 μL on top of the filter, 350 μL to the bottom of the well) overnight in the 37° C. CO2 incubator. Cells were seeded in the pre-coated 24-well transwell plates at 1.7×10^5 cell/well with 700 μL of growth media at the bottom of the well and 200 μL of growth media at the top of the filter. After 24 hrs, cells were switched into HBE differentiation media ((DMEM/F12 (Gibco, Cat #11330-032) supplement with 2% Ultroser G (Pall, Cat #15950-017), 2% of Fetal Clone II (Hyclone, Cat #SH30066.03), 0.25% Bovine Brain Extract (Lonza, Cat #CC-4098), 1% of PSA, 2.5 μg/mL of Insulin (Sigma, Cat #19278), 20 nM of Hydrocortisone (Sigma, Cat #H0888), 500 nM of Triiodothyronine (Sigma, Cat #T6397), 2.5 μg/mL of Transferrin (Sigma, Cat #T8158), 250 nM of Ethanolamine (Sigma, Cat #E0135), 1.5 μM of Epinephrine (Sigma, Cat #E4250), 250 nM of Phosphoethanolamine (Sigma, Cat #P0503), 10 nM of retinoic acid)) with 200 μL on top of the filter (apical side) and 700 μL at the bottom of the well (basolateral side). Cells were fed every other day with the differentiation media. After 4 days, cells were exposed to air/liquid interface. Then cells were fed every other day for 4 weeks before fully differentiated.
Cells were washed with 3 mM DTT in PBS at 70 ul/well for 30 min at 37° C. 6 days before the assay. 3 days before the assay, cells were washed again with PBS at 70 ul/well for 30 min at 37° C. Then cells were treated with compound for 24 hrs before the assay.
Following 24 hr treatment with compound, cells were transferred into plates containing 750 ul of assay media on basolateral side and 250 ul on apical side (Assay medium: F-12 Coon's modified, 20 mM HEPES pH7.4 with TRIS Base, No FCS or bicarbonate). The plates wee then transferred to the heated plate compartments (basolateral buffer temperature ˜36.5° C. on the heating block) of the TECC24 system for 45 mins prior to measurements.
Modulators were added sequentially as follows while the TECC24 instrument recorded the equivalent short circuit current (Ieq):
Prior to dilution into assay medium the stocks were as follows: • Benzamil stock: 10 mM in DMSO • Forskolin Stock: 50 mM in DMSO • N-(2,4-di-tert-butyl-5-hydroxyphenyl)-1,4-dihydro-4-oxoquinoline-3-carboxamide: 50 mM in DMSO • (S)-3-amino-6-methoxy-N-(3,3,3-trifluoro-2-hydroxy-2-methylpropyl)-5-(trifluoromethyl)picolinamide: 50 mM stock 100% DMSO • Bumetanide stock: 20 mM in EtOH
The data was normalized using the median signal from wells treated with 0.1% DMSO as a baseline. Curve fitting and EC50 calculations were performed using the following equation: […]

EC50 [1]	EC50 [2]	MTECC24-CFHBEC Amax % [2]	Emax [1]	Compound
1110 nM	31 nM	277%	–	Cc1ccccc1-c1nc(NS(=O)(=O)c2cccc(N(CCC(=O)O)CC(C)C)n2)ccc1C(F)(F)F [Compound 128, 3-(isobutyl(6-(N-(6-(o-tolyl)-5-(trifluoromethyl)pyridin-2-yl)sulfamoyl)pyridin-2-yl)amino)propanoic Acid]
1370 nM	114 nM	189%	–	Cc1ccccc1-c1nc(NS(=O)(=O)c2cccc(N(CCCC(=O)O)CCC(F)(F)F)n2)ccc1C(F)(F)F [Compound 134, 4-((6-(N-(6-(o-tolyl)-5-(trifluoromethyl)pyridin-2-yl)sulfamoyl)pyridin-2-yl)(3,3,3-trifluoropropyl)amino)butanoic Acid]
1490 nM	88 nM	133%	–	CCCN(CCC(=O)O)c1cccc(S(=O)(=O)Nc2ccc(C(F)(F)F)c(-c3cc(F)ccc3C)n2)n1 [Compound 149, 3-((6-(N-(6-(5-fluoro-2-methylphenyl)-5-(trifluoromethyl)pyridin-2-yl)sulfamoyl)pyridin-2-yl)(propyl)amino)propanoic Acid]
920 nM	230 nM	158%	549%	CCCN(CCCC(=O)O)c1cccc(S(=O)(=O)Nc2ccc(Cl)c(-c3ccccc3C)n2)n1 [Compound 156, 4-((6-(N-(5-chloro-6-(o-tolyl)pyridin-2-yl)sulfamoyl)pyridin-2-yl)(propyl)amino)butanoic Acid]

The next lines start with the molecule.

Compound	EC50 [1]	EC50 [2]	MTECC24-CFHBEC Amax % [2]	Emax [1]
Cc1ccccc1-c1nc(NS(=O)(=O)c2cccc(N(CCCC(=O)O)CC(C)C)n2)ccc1C(F)(F)F [Compound 129, 4-(isobutyl(6-(N-(6-(o-tolyl)-5-(trifluoromethyl)pyridin-2-yl)sulfamoyl)pyridin-2-yl)amino)butanoic Acid]	1080 nM	154 nM	83%	–
CCCN(CCCC(=O)O)c1cccc(S(=O)(=O)Nc2ccc(C(F)(F)F)c(-c3cc(F)ccc3C)n2)n1 [Compound 131, 4-((6-(N-(6-(5-fluoro-2-methylphenyl)-5-(trifluoromethyl)pyridin-2-yl)sulfamoyl)pyridin-2-yl)(propyl)amino)butanoic Acid]	1380 nM	327 nM	95%	–
CCCN(CCCC(=O)O)c1cccc(S(=O)(=O)Nc2ccc(C(F)(F)F)c(-c3ccccc3C)n2)n1 [Compound 132, 4-(propyl(6-(N-(6-(o-tolyl)-5-(trifluoromethyl)pyridin-2-yl)sulfamoyl)pyridin-2-yl)amino)butanoic Acid]	1580 nM	95 nM	232%	–
Cc1ccccc1-c1nc(NS(=O)(=O)c2cccc(N(C)CC3(C(=O)O)CCOCC3)n2)ccc1C(F)(F)F [Compound 133, 4-((methyl(6-(N-(6-(o-tolyl)-5-(trifluoromethyl)pyridin-2-yl)sulfamoyl)pyridin-2-yl)amino)methyl)tetrahydro-2H-pyran-4-carboxylic Acid]	1920 nM	901 nM	108%	547%
Cc1ccc(F)cc1-c1nc(NS(=O)(=O)c2cccc(N(CCC(=O)O)C(C)C)n2)ccc1C(F)(F)F [Compound 135, 3-((6-(N-(6-(5-fluoro-2-methylphenyl)-5-(trifluoromethyl)pyridin-2-yl)sulfamoyl)pyridin-2-yl)(isopropyl)amino)propanoic Acid]	1570 nM	65 nM	292%	–
CCCN(CCC(=O)O)c1cccc(S(=O)(=O)Nc2ccc(C(F)(F)F)c(-c3ccccc3C)n2)n1 [Compound 148, 3-(propyl(6-(N-(6-(o-tolyl)-5-(trifluoromethyl)pyridin-2-yl)sulfamoyl)pyridin-2-yl)amino)propanoic Acid]	1450 nM	179 nM	247%	–
CCCN(CCCC(=O)O)c1cccc(S(=O)(=O)Nc2ccc(Cl)c(-c3c(C)cccc3C)n2)n1 [Compound 157, 4-((6-(N-(5-chloro-6-(2,6-dimethylphenyl)pyridin-2-yl)sulfamoyl)pyridin-2-yl)(propyl)amino)butanoic Acid]	770 nM	586 nM	59%	589%
